Reference: patent US20230381141A1, “CONJOINT THERAPIES FOR TREATING VIRAL INFECTIONS” (priority 2022, published 2023)
Several values for one entry are separate records, joined by “and”; a condition that tells them apart may be missing. Equal entries are not always repeated. Entries after “also recorded” stand apart in the source; their conditions may differ. Where two headings read alike, the source gives them in different places.

How the values were obtained:
[1] = Brain drug level in mice by LC-MS/MS; details: for concentration at 2 h: male, C57BL/6, mouse, brain, po, 30 mg/kg; for brain permeability: pilot PK studies in mice
Excerpt: (§3) Two hours after dosing, mice were anesthetized and blood was collected following transcardial puncture for the isolation of plasma. Mice were then perfused transcardially with saline and brain tissue removed.

[2] = system: IFN-β induction in HEK293T cells expressing SARS-CoV-2 PL^pro; assay type: cell-based
[3] = biological target: PL^pro ISG15 cleavage activity (Severe acute respiratory syndrome coronavirus 2, UniProt P0DTD1); assay: PL^pro ISG15 substrate (deISGylase) assay; assay type: biochemical, SARS-CoV-2
Method: (§1) Briefly, in each assay, the enzyme was loaded into each well in the appropriate buffer, next the compounds were added into the well and incubated for 10-60 min at 37° C. The reaction was initiated by addition of substrate to each well and the fluorescent signal was read for 60 min at the appropriate excitation/emission.
(§2) For the PL^pro and PL^pro deubiquitinase assays, DTT was added to the assay buffer to achieve 1 mM DTT before the assay. A 10 mM stock of compounds was prepared in DMSO, this stock was diluted in assay buffer to achieve a 10× of the desire concentration in the well. Next, the PL^pro and deubiquitinase substrates were diluted to 42 μM and 0.5 μM respectively in the assay buffer. Then, PL^pro enzyme was diluted to 2.5 ng/μL and 6 ng/μL for the PL^pro and deubiquitinase assays respectively in the assay buffer. […] The reaction was started by adding 12.5 μL of the substrate to each well, the reaction was monitored for 1 h at excitation at 360 nm; emission at 460 nm. For the ISG15 substrate, PL^pro enzyme at 0.1 nM was incubated with compounds for lh and the reaction was initiated by adding ISG15-RH110 substrate at 500 nM, the reaction was monitored for 1-hour excitation at 485 nm; emission at 535 nm. […] Following the incubation, 2 μL of substrate at 25 μM was added into the wells and the fluorescent signal (ex/em 380/455 nm) was recorded for 1 h at 37° C.

[4] = biological target: PL^pro deubiquitinase activity (Severe acute respiratory syndrome coronavirus 2, UniProt P0DTD1); assay: PL^pro deubiquitinase substrate assay; assay type: biochemical, SARS-CoV-2
Method: as §1, §2

[5] = biological target: spike protein-ACE2 complex (UniProt P0DTC2+Q9BYF1); details: separate study; cited from earlier work
[6] = system: SARS-CoV-2; details: cited from earlier work; for EC50: read-out: antiviral EC50; for EC90: read-out: antiviral EC90
[7] = system: IFN induction (IRF3 reporter); assay: IFN induction assay, IRF3 binding site Firefly luciferase reporter with poly(I:C); assay type: cell-based
[8] = system: Vero E6 normal cells; details: cited from earlier work
[9] = biological target: SARS-CoV-2 PL^pro (Severe acute respiratory syndrome coronavirus 2, UniProt P0DTD1); assay: biochemical; details: for inhibition at 50 µM: read-out: inhibition of PL^pro activity in library screening
[10] = biological target: SARS-CoV-2 M^pro (Severe acute respiratory syndrome coronavirus 2, UniProt P0DTD1); assay: M^pro activity assay, fluorogenic substrate; assay type: biochemical; details: alone, FIG. 7B
[11] = cited from earlier work
[12] = Plasma drug level in mice by LC-MS/MS; details: C57BL/6, mouse
Method: Following compound administration, mice were euthanized at 2 hours, followed by perfusion.
as §3

[13] = biological target: PL^pro (Severe acute respiratory syndrome coronavirus 2, UniProt P0DTD1); details: read-out: reported PL^pro IC50; cited from earlier work
[14] = 1 μM, poly I:C, Wuhan strain PL^pro
[15] = in combination with DDL-750 or DDL-750/DDL-751, FIG. 2
[16] = Vero E6 cells infected with SARS-CoV-2
[17] = PL^pro peptide substrate, dose response, read-out: IC50 PL^pro inhibition
[18] = po, 30 mg/kg, plasma levels in combination DDL-701+DDL-750, mice, oral gavage 30 mg/kg, combination, FIG. 5
[19] = po, 30 mg/kg, plasma levels, mice, oral gavage 30 mg/kg, given alone, FIG. 5
[20] = male, oral, plasma levels in combination, mice, DDL-701 + DDL-750 both 30 mg/Kg oral, FIG. 9
[21] = male, po, 30 mg/kg, plasma levels, mice, oral 30 mg/Kg, given alone, FIG. 9
[22] = SARS-CoV-2 infected VeroE6 cells
[23] = read-out: Cmax in human plasma after oral dosing, oral dosing

spike protein-ACE2 complex, sequence (Q9BYF1 18-805, one chain of several): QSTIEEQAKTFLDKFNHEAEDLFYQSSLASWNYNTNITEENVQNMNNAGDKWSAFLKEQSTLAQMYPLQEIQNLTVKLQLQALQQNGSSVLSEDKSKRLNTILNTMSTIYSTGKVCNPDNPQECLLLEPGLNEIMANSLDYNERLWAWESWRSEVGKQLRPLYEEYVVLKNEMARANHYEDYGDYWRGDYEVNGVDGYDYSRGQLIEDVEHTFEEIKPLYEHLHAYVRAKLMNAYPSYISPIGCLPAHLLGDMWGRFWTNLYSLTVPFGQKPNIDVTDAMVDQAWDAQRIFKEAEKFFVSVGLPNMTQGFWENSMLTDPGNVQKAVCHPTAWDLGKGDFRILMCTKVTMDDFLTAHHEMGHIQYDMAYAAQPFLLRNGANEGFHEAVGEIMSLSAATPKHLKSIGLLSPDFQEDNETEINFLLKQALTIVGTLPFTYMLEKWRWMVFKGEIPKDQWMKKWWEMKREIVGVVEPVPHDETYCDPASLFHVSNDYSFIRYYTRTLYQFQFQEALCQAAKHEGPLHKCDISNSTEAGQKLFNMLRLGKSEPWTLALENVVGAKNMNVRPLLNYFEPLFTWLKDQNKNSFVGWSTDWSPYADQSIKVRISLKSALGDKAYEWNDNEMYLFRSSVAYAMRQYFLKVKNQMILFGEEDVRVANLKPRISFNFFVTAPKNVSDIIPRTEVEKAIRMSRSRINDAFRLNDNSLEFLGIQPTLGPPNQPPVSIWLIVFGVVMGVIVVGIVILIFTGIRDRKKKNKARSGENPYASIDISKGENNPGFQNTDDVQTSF

With CC1=NN(c2ccc(C)c(C)c2)C(=O)/C1=N/Nc1cccc(-c2cccc(C(=O)O)c2)c1O [DDL-701, eltrombopag] the concentration at 2 h [1] was ~1 µM and ~442 ng/g, the “brain penetration relative to nirmatrelvir” value ([1]; mice, oral 30 mg/Kg, 2 hours) was over 5 fold and the brain permeability [1] was “brain-permeable”. The “rescue of IFN-β induction in the presence of PL^pro” value (shortened to “rescue of IFN-β induction”) [2, 14] was “modestly yet significantly rescued; also recorded: partially restored”, the “rescue of IFN-β induction” value ([2]; higher concentrations than 1 μM) was “did not rescue induction” and the IC50 ([3]; ISG15 substrate, dose response) was 8 µM. The “ISG15 activity inhibition in combination” value [3, 15] was “inhibits”, the IC50 ([4]; deubiquitinase substrate, dose response) was 21 µM and the “deubiquitinase inhibition in combination” value [4, 15] was “inhibits”. The “effect on spike protein-ACE2 complex” value [5] was “bind and reduce the stability”, the EC50 [6, 16] was 8.2 µM and the EC90 [6, 16] was 9.5 µM. For the same compound, the EC50 ([6]; Vero cells infected with SARS-CoV-2 (Sangeun J. et al., 2020)) was about 8 µM, the IFN induction ([7]; at 10 and 1 μM) was “approximately 1.5 fold over DMSO” and the CC50 [8] was over 50 µM. For the same compound, the “inhibition of PL^pro by DDL-701 in combination with DDL-750” value ([9]; DDL-701/750 at 50 μM/0.1 μM, FIG. 7A) was “not affected”, the “inhibition of PL^pro” value ([9]; DDL-701 alone at 50 μM, FIG. 7A) was “almost complete” and the IC50 [9, 17] was 13 µM. The “PLpro inhibition in combination” value [9, 15] was “inhibits; also recorded: continues to show its inhibition”, the inhibition at 50 µM [9] was over 80% and the “activity in M^pro activity assay” value [10] was “did not show activity; also recorded: not M^pro”. For the same compound, the AUC ([11]; human, single oral dose of 75 mg, tablet) was 168 µg·h/mL, the Cmax ([11]; read-out: plasma Cmax, human, single oral dose of 75 mg, tablet) was 25000 to 36000 nM and the Cmax ([11]; read-out: steady state drug level in plasma, Cmax, human, 75 mg tablet, oral dosing, steady state) was about 50000 nM. The concentration at 2 h [12, 18] was 4 µM, the concentration at 2 h [12, 19] was about 11 µM and the concentration at 2 h [12, 20] was ~4 µM and 1630 ng/mL. The concentration at 2 h [12, 21] was ~14 µM and ~6210 ng/mL.
Work on CC1=NN(c2ccc(C)c(C)c2)C(=O)/C1=N/Nc1cccc(-c2cccc(-c3nnn[nH]3)c2)c1O [DDL-713, thrombopoietin receptor agonist-1] yielded an IC50 [9, 17] of about 54 µM and an inhibition at 50 µM ([9]; compounds at 50 μM) of over 80%.
In the case of COc1cc(C(=O)NS(=O)(=O)c2ccccc2C)ccc1Cc1cn(C)c2ccc(NC(=O)OC3CCCC3)cc12 [DDL-715, zafirlukast], the “rescue of IFN-β induction” value [2, 14] is reported as “not”, the “rescue of IFN-β induction” value ([2]; any dose) is reported as “Neither DDL-715 nor DDL-750 rescued IFN-β induction” and the IFN induction ([7]; at 10 and 1 μM) is reported as “approximately 1.5 fold over DMSO”. The IC50 [9] was about 24 µM, the inhibition at 50 µM ([9]; compounds at 50 μM) was over 80% and the Cmax ([11]; human, in vivo, po) was about 500 nM. For the same compound, the concentration at 2 h [12, 19] was about 4 µM.
With CC(C)(C)[C@H](NC(=O)C(F)(F)F)C(=O)N1C[C@H]2[C@@H]([C@H]1C(=O)N[C@H](C#N)C[C@@H]1CCNC1=O)C2(C)C [DDL-750, nirmatrelvir] the concentration at 2 h [1] was ~180 nM and ~91 ng/g, the brain permeability [1] was “lower brain-permeability” and the “rescue of IFN-β induction” value [2, 14] was “not”. The “rescue of IFN-β induction” value ([2]; any dose) was “Neither DDL-715 nor DDL-750 rescued IFN-β induction”, the EC50 [6, 22] was 0.074 µM and the EC90 [6, 22] was 0.155 µM. For the same compound, the IFN induction ([7]; at 1 μM) was “approximately 1.3 fold over DMSO”, the CC50 [8] was over 100 µM and the concentration at 2 h [12, 18] was 0.1 µM. The concentration at 2 h [12, 19] was about 0.4 µM, the concentration at 2 h [12, 20] was ~100 nM and ~55 ng/mL and the concentration at 2 h [12, 21] was ~500 nM and ~234 ng/mL.
In the case of CC(C)c1nc(CN(C)C(=O)N[C@H](C(=O)N[C@@H](Cc2ccccc2)C[C@H](O)[C@H](Cc2ccccc2)NC(=O)OCc2cncs2)C(C)C)cs1 [DDL-751, ritonavir], the IFN induction ([7]; at the concentration tested) is reported as “did not produce IFN induction”.
For CCCCc1nc(Cl)c(CO)n1Cc1ccc(-c2ccccc2-c2nn[nH]n2)cc1 [losartan], the IC50 [13] is given as about 13 µM and the Cmax [11, 23] is given as about 500 nM.
For O=C(O)c1cc(F)c2nc(N3[C@@H]4CC[C@H]3C[C@@H](OCc3c(-c5ccccc5OC(F)(F)F)noc3C3CC3)C4)sc2c1 [tropifexor], the IC50 [13] is listed as about 6 µM and the Cmax [11, 23] is listed as under 100 nM.
